Data on 3 compounds can be found in patent US20240238383A1, “ANTI-OXIDANT CONTAINING PARTICLES AND METHODS OF USE” (University of lowa Research Foundation, priority 2021, published 2024).

For one data set, the system named is Col8a2^L450W mice. The settings on record: 7 mg/ml in water vs water alone; cited from earlier work.
For another data set, the system named is cultured FECD CECs. Briefly: RSL3/erastin-induced ferroptosis assay, cell viability by MTS, cultured FECD CECs. In kind it is cell-based, human. On the procedure:
(§1) FIGS. 4A-4C. FECD CECs are more susceptible to ferroptosis than B4G12 control CECs. (A) Basal lipid peroxidation, as measured by C11 BODIPY, is 57% higher in cultured FECD CECs (N=3) than B4G12 cells (N=3). […] Cultured FECD CECs (N=6) also have 4.7-fold more TFR1 mRNA than B4G12 CECs (N=9), normalized to 18S. (C) Cultured FECD CECs (N=3) and B4G12 cells (N=3) were treated with 1 μM RSL3 to induce cell death via Fe-dependent ferroptosis. The cells were also treated with 100 μM of a Fe chelator, deferoxamine (DFO). Cell viability was measured using MTS assays over 8 hours.
FIGS. 5A-5B. FECD-associated ferroptosis is prevented by ubiquinol nanoparticles (NPs) and SOD2 supplementation. […] After incubating another 24 hours (68 hours total), cell viability in each culture was quantified using MTS assays.
(§2) Basal levels of lipid peroxidation and cytosolic Fe are higher in human FECD CECs than control CECs. […] One experiment assessed lipid peroxidation directly. Cultured FECD CECs and control CECs (B4G12 cells) were labeled with BODIPY and intensity was measured using flow cytometry. […] To determine whether Fe trafficking is affected in the context of FECD, TFR1 was quantified, which has been identified as an indicator of ferroptosis (Stockwell et al., 2017; Feng et al., 2020). […]

A further data set deals with B4G12 CECs. Briefly: RSL3/erastin-induced ferroptosis / cell death assay, cell viability by MTS, B4G12 CECs. In kind it is cell-based, human. As for the experimental part:
as §1
FIGS. 8A-8B. Nanoparticle targeting and efficacy. […] FITC-anti-αvβ3 labeled cells were detected and counted by flow cytometry and compared to a FITC-IgG control as well as unlabeled cells. […] After incubating another 24 hours (68 hours total), cell viability in each culture was quantified using MTS assays. […]
as §2

For data set [1] the following is noted: Optisol-GS at 4° C. over 4 days. As for the experimental part:
Samples of Optisol-GS are collected daily. Concentrations (μg drug/total protein) of ubiquinol and its oxidized form ubiquinone are measured using HPLC. Coenzyme Q9 (CoQ9) is the internal standard.

Data set [2] relates to ex vivo human donor CEC tissues. Briefly: Mitochondrial respiration stress testing (extracellular flux analysis of O2 consumption, Seahorse) of donor CEC tissues stored in Optisol-GS. In kind it is cell-based. As for the experimental part: FIGS. 3A-3B. Ubiquinol increases mitochondrial function under oxidative stress. (A) Ex vivo human donor CECs stored in corneal storage media (Optisol-GS, Bausch+Lomb) are exposed to 3-fold greater O2 levels than in vivo CECs. Extracellular flux analysis of O2 consumption was performed in transplant-suitable ex vivo human donor CEC tissues stored for 12 days (average) in media supplemented with 10 μM free ubiquinol (dissolved in ethanol at 37° C.) for the last 5 days of storage (N=13) compared to same-donor controls (N=13). […] (B) The presence of αvβ3 on B4G12 CECs (N=3) was confirmed, indicating cRGD NPs will be a suitable delivery system for getting ubiquinol into CECs. FITC-anti-αvβ3 labeled cells were detected and counted by flow cytometry and compared to a FITC-IgG control as well as unlabeled cells. Dashed lines=injections of oligomycin (0), carbonyl cyanide-p-trifluoromethoxy-phenyl-hydrazone (F), antimycin A/rotenone (R/A). Error bars=SEM. ****P<0.0001. SRC, spare respiratory capacity.
Supplementing Optisol-GS with free ubiquinol increases mitochondrial function in donor CECs. Mitochondrial respiration stress testing (extracellular flux analysis of O2 consumption, Seahorse XFe24, Agilent) was performed in transplant-suitable ex vivo human donor CEC tissues stored for 12 days (average) in media supplemented with 10 μm free ubiquinol (dissolved in ethanol at 37 °C) for the last 5 days of storage compared to same-donor ethanol-only controls (N=13 each) (Greiner et al., 2015). […] Although free ubiquinol improved CEC mitochondrial function, ethanol and heat were required to bring it into solution and it was impractical to handle in standard industry conditions. Therefore, ubiquinol can be used to rescue mitochondrial function from storage-related oxidative stress but needs increased delivery. Given the positive impact of ubiquinol treatment on CECs stored at the end of conventional storage (12-14 days), increasing ubiquinol delivery may permit testing for benefit at extended PT (21 days, a 50% increase in PT).

The conditions of data set [3]: cited from earlier work.
The mark [4] stands for this setting: 10 μM free ubiquinol for last 5 days of 12 days (average) storage, vs same-donor controls, N=13.

“Also recorded” adds a separate entry of the source.

Regarding `CC(=O)N[C@@H](CS)C(=O)O` [NAC, N-Acetyl-L-cysteine], in the data set with Col8a2^L450W mice, the “CEC death associated with ER stress and oxidative stress” value is listed as “prevented CEC death”; the “clinical markers of CEC health” value was “increase clinical markers of CEC health”.

With `COC(=O)c1ccc([C@@H]2c3[nH]c4ccccc4c3C[C@@H](C(=O)OC)N2C(=O)CCl)cc1` [RSL3], the “sensitivity of cells to induced ferroptosis” value in the data set with cultured FECD CECs (cultured FECD CECs) and in the data set with B4G12 CECs was “sensitive” each time.

In turn, `COc1c(O)c(C)c(C/C=C(\C)CC/C=C(\C)CC/C=C(\C)CC/C=C(\C)CC/C=C(\C)CC/C=C(\C)CC/C=C(\C)CC/C=C(\C)CC/C=C(\C)CCC=C(C)C)c(O)c1OC` [free ubiquinol, ubiquinol] showed a ubiquinol remaining in data set [1] of 69.3%. For the same compound, in the data set on cultured FECD CECs (antioxidant at 20 h, 1 μM RSL3 after 24 h, read after another 24 h), the “prevention of ferroptosis (cell viability, MTS)” value is on record as “little efficacy”. In data set [2] (setting [4]), the “increase in maximal respiration” value was determined as 93% and the “increase in spare respiratory capacity” value amounted to 174%. In addition, the “mitochondrial respiration / mitochondrial function” value in data set [2] (free ubiquinol in corneal storage media vs controls) is “enhance mitochondrial function; also recorded: increased mitochondrial respiration compared to controls; also recorded: significantly increased mitochondrial respiration and spare respiratory capacity versus controls”. Moreover, the “solubility in water / aqueous media” value in data set [3] is listed as “practically insoluble in water; also recorded: poorly soluble in aqueous media”.
